In BindingDB's records for patent US12286435 (Bionna (Beijing) Medical Technology, 2025):
pKi: −log10 of the molar value.

Tests used:
[1] = biological target: T1, Bromodomain-containing protein 4 [348-457] (Human, UniProt O60885); test: Determination of the value of binding affinity constant (KO between the compound and BRD4 BD2 protein
T1 construct: 348-457
Procedure: The multifunctional microplate reader was a product of TECAN, model: SPARK 10M. Buffer: 100 mM potassium phosphate (pH 6.5), 2% ethylene glycol (Sigma) and 0.01% Trition X-100 (Sigma). The experimental water was Millipore-Q pure water.The Ki value of the compound and BRD4 BD2 protein was measured according to the FP test procedures for detecting the Ki value of the compound and BRD4 BD1 protein except that the BRD4 BD1 protein was replaced with the BRD4 BD2 protein.

[2] = biological target: T2, Bromodomain-containing protein 4 [58-164] (Homo sapiens, UniProt O60885); test: Determination of the value of binding affinity constant (KO between the compound and BRD4 BD1 protein
T2 construct: 58-164
Procedure: The multifunctional microplate reader was a product of TECAN, model: SPARK 10M. Buffer: 100 mM potassium phosphate (pH 6.5), 2% ethylene glycol (Sigma) and 0.01% Trition X-100 (Sigma). The experimental water was Millipore-Q pure water.The specific experimental steps were as follows.First, the compound to be tested was dissolved in ethylene glycol to prepare into a 10 mM standard stock solution. Subsequently, the standard stock solution of the compound to be tested was diluted into a working sample solution with the buffer in an EP tube and ready for use. The concentration of the prepared working sample solution was 5 times of the highest sample concentration required on the test plate (5×test compound solution).[…] of a 5× test compound solution of a sample A was added to wells B1-B3 of a 96-well plate, and 40 μL of a 5× test compound solution of a sample B was added to wells B7-B9 of the 96-well plate, respectively. 20 uL of the buffer was added to the remaining wells, except for wells B1-B3 and B7-B9. Then, 20 uL of a solution was taken from wells B1-B3 to C1-C3, and this 2-fold dilution was repeated from C1-C3 until H4-H6; in the same way, 20 uL of a solution was taken from B7-B9 to C7-C9, this 2-fold dilution was repeated from C7-C9 until H10-H12.

Structure (SMILES)	pKi [1]	pKi [2]
CCCCN1CC=C(c2ccc3c(c2)C(Nc2cccc(Cl)c2)CCn2nnc(C)c2-3)CC1 (configuration not stated) [US12286435, Code BH108]	7.61	6.35
COC(=O)Cc1ccc(NC2CCn3nnc(C)c3-c3ccc(-c4cnn(C)c4)cc32)cc1 (configuration not stated) [US12286435, Code LB38]	8.03	7.35
Cc1nnn2c1-c1ccc(-c3cnn(C)c3)cc1C(Nc1cccc(CCO)c1)CC2 (configuration not stated) [US12286435, Code LB71]	7.52	7.04
COC(=O)Cc1ccccc1NC1CCn2nncc2-c2ccc(-c3cnn(C)c3)cc21 (configuration not stated) [US12286435, Code LB175]	7.73	7.36
Cc1nnn2c1-c1ccc(C3=CCNCC3)cc1C(Nc1c(F)cccc1Cl)CC2 (configuration not stated) [US12286435, Code LC198]	6.82	5.53
Cc1nnn2c1-c1ccc(C3=CCOCC3)cc1C(Nc1cccc(Cl)c1)CC2 (configuration not stated) [US12286435, Code LD31]	7.77	7.41
